Patent US20020137929A1, “1 - (3-heterocyclylphenyl) isothiourea, -isourea, -guanidine and -amidine herbicidal agents” (Intellectual Property Department, BASF Aktiengesellschaft, priority 1998, published 2002)

Legend:
ECHCG (Barnyardgrass) = assay: Postemergence herbicidal evaluation; type: in vivo, Echinochloa crus-galli
Procedure, shortened: (§1)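 Compound is applied as a foliar spray to seedlings about two weeks old, formulated in equal parts acetone and water with 0.5% TWEEN 20 and delivered at 40 psi to give about 0.0156–0.500 kg per hectare. Injury is rated visually 0–9 after four to five weeks.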

CYPSE (Flatsedge) = assay: Postemergence weed control under flooded paddy conditions; type: in vivo, Cyperus serotinus; conditions: postemergence weeds, 3-4 weeks after treatment
Procedure, shortened: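 Injury ratings (0–9 scale covering stand, vigor, malformation, size, chlorosis and overall appearance versus control) were made three to four weeks after treatment. Test material, about 0.0313 to 0.500 kg/ha a.i. in 50/50 v/v aqueous/acetone, was added to flood water 1.5 to 3 cm deep over 3 to 5 cm weeds and 1.5 to 2.5 leaf rice.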

SETVI (Foxtail, Green) = assay: Preemergence herbicidal evaluation; type: in vivo, Setaria viridis; conditions: rated 4-5 weeks after treatment
Procedure, shortened: (§2)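 Each species is sown separately in potting soil over roughly an inch of soil before any emergence. The soil surface then receives an aqueous acetone spray delivering about 0.0156 to 0.500 kg/ha of compound. After four to five weeks, injury is scored from 0 to 9 relative to a control.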

CYPIR (Rice Flatsedge) = assay: Preemergence weed control under flooded paddy conditions; type: in vivo, Cyperus iria; conditions: rated 3-4 weeks after treatment
Procedure, shortened: (§3)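 Visual injury scored 0-9 against control three to four weeks post-treatment, greenhouse-grown. Application: acetone/water (50/50) solutions dosed directly into flood water (1.5-3 cm over silt loam, planted top 0.5 cm), roughly 0.0313 to 0.500 kg/ha active ingredient.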

ORYSAT (Rice, Tebonnet) [1] = assay: Preemergence herbicidal evaluation; type: in vivo, Oryza sativa, (L.) Tebonnet; conditions: rated 4-5 weeks after treatment
Procedure, shortened: as §2

ORYSAT (Rice, Tebonnet) [2] = assay: Postemergence herbicidal evaluation; type: in vivo, Oryza sativa, (L.) Tebonnet
Procedure, shortened: as §1

[3] = system: CHEAL (Lambsquarters, Common); assay: Postemergence herbicidal evaluation; type: in vivo, Chenopodium album
Procedure, shortened: as §1

GALAP (Galium) = assay: Preemergence herbicidal evaluation; type: in vivo, Galium aparine; conditions: rated 4-5 weeks after treatment
Procedure, shortened: as §2

MOOVA (Monochoria) = assay: Preemergence weed control under flooded paddy conditions; type: in vivo, Monochoria vaginalis; conditions: rated 3-4 weeks after treatment
Procedure, shortened: as §3

[4] = system: TRZAWR (Wheat, Winter, cv Riband); assay: Preemergence herbicidal evaluation; type: in vivo, Triticum aestivum; conditions: rated 4-5 weeks after treatment
Procedure, shortened: as §2

[5] = system: GLXMAW (Soybean, Williams); assay: Preemergence herbicidal evaluation; type: in vivo, Glycine max, (L.) Merr. cv Williams; conditions: rated 4-5 weeks after treatment
Procedure, shortened: as §2

[6] = system: SAGPY (Arrowhead (Pygmaea)); assay: Preemergence weed control under flooded paddy conditions; type: in vivo, Sagittaria pygmaea; conditions: rated 3-4 weeks after treatment
Procedure, shortened: as §3

ZEAMX (Corn, Field) = assay: Preemergence herbicidal evaluation; type: in vivo, Zea mays; conditions: rated 4-5 weeks after treatment
Procedure, shortened: as §2

CASOB (Sicklepod) = assay: Postemergence herbicidal evaluation; type: in vivo, Cassia obtusifolia
Procedure, shortened: as §1

**Q.** Which results are given for `CCOC(=O)CN1C(=O)CSC1=Nc1cc(N2C(=O)C3=C(CCCC3)C2=O)c(F)cc1Cl` [Compound 47, Ethyl 2-{[2-chloro-5-(1-cyclohexene-1,2-dicarboximido)-4-fluorophenyl]imino}-4-oxo-3-thiazolidineacetate]?
**A.** Postemergence herbicidal rating ECHCG (ECHCG (Barnyardgrass); Rate 0.0156 kg/ha): 0.0; Postemergence herbicidal rating ECHCG (ECHCG (Barnyardgrass); Rate 0.0313 kg/ha): 0.0; Postemergence herbicidal rating ECHCG (ECHCG (Barnyardgrass); Rate 0.0625 kg/ha): 0.0; Herbicidal rating CYPSE (CYPSE (Flatsedge); rate 0.0313 kg/ha): 0.0; Herbicidal rating CYPSE (CYPSE (Flatsedge); rate 0.0625 kg/ha): 0.0; Herbicidal rating CYPSE (CYPSE (Flatsedge); rate 0.1250 kg/ha): 0.0; Herbicidal rating CYPSE (CYPSE (Flatsedge); rate 0.2500 kg/ha): 0.0; Preemergence herbicidal rating SETVI (SETVI (Foxtail, Green); rate 0.0156 kg/ha): 0.0; Preemergence herbicidal rating SETVI (SETVI (Foxtail, Green); rate 0.0313 kg/ha): 0.0; Preemergence herbicidal rating SETVI (SETVI (Foxtail, Green); rate 0.0625 kg/ha): 0.0; Preemergence herbicidal rating SETVI (SETVI (Foxtail, Green); rate 0.1250 kg/ha): 0.0; Preemergence herbicidal rating SETVI (SETVI (Foxtail, Green); rate 0.2500 kg/ha): 4.0; Herbicidal rating CYPIR (CYPIR (Rice Flatsedge); 0.0313 kg/ha): 0.0; Herbicidal rating CYPIR (CYPIR (Rice Flatsedge); 0.0625 kg/ha): 0.0; Herbicidal rating CYPIR (CYPIR (Rice Flatsedge); 0.1250 kg/ha): 4.0; Herbicidal rating CYPIR (CYPIR (Rice Flatsedge); 0.2500 kg/ha): 6.0; Preemergence herbicidal rating ORYSAT (ORYSAT (Rice, Tebonnet) [1]; rate 0.0156 kg/ha): 0.0; Preemergence herbicidal rating ORYSAT (ORYSAT (Rice, Tebonnet) [1]; rate 0.0313 kg/ha): 0.0; Preemergence herbicidal rating ORYSAT (ORYSAT (Rice, Tebonnet) [1]; rate 0.0625 kg/ha): 0.0; Preemergence herbicidal rating ORYSAT (ORYSAT (Rice, Tebonnet) [1]; rate 0.1250 kg/ha): 0.0; Preemergence herbicidal rating ORYSAT (ORYSAT (Rice, Tebonnet) [1]; rate 0.2500 kg/ha): 0.0; Postemergence herbicidal rating ORYSAT (ORYSAT (Rice, Tebonnet) [2]; Rate 0.0156 kg/ha): 0.5; Postemergence herbicidal rating ORYSAT (ORYSAT (Rice, Tebonnet) [2]; Rate 0.0313 kg/ha): 1.5; Postemergence herbicidal rating ORYSAT (ORYSAT (Rice, Tebonnet) [2]; Rate 0.0625 kg/ha): 3.0; Postemergence herbicidal rating CHEAL ([3]; Rate 0.0156 kg/ha): 3.0; Postemergence herbicidal rating CHEAL ([3]; Rate 0.0313 kg/ha): 4.0; Preemergence herbicidal rating GALAP (GALAP (Galium); rate 0.0156 kg/ha): 0.0; Preemergence herbicidal rating GALAP (GALAP (Galium); rate 0.0313 kg/ha): 0.0; Preemergence herbicidal rating GALAP (GALAP (Galium); rate 0.0625 kg/ha): 0.0; Preemergence herbicidal rating GALAP (GALAP (Galium); rate 0.1250 kg/ha): 0.0; Preemergence herbicidal rating GALAP (GALAP (Galium); rate 0.2500 kg/ha): 9.0; Herbicidal rating MOOVA (MOOVA (Monochoria); 0.0313 kg/ha): 5.0; Herbicidal rating MOOVA (MOOVA (Monochoria); 0.0625 kg/ha): 6.0; Herbicidal rating MOOVA (MOOVA (Monochoria); 0.1250 kg/ha): 9.0; Herbicidal rating MOOVA (MOOVA (Monochoria); 0.2500 kg/ha): 9.0; Preemergence herbicidal rating TRZAWR ([4]; rate 0.0156 kg/ha): 0.0; Preemergence herbicidal rating TRZAWR ([4]; rate 0.0313 kg/ha): 0.0; Preemergence herbicidal rating TRZAWR ([4]; rate 0.0625 kg/ha): 0.0; Preemergence herbicidal rating TRZAWR ([4]; rate 0.1250 kg/ha): 0.0; Preemergence herbicidal rating TRZAWR ([4]; rate 0.2500 kg/ha): 0.0; Preemergence herbicidal rating GLXMAW ([5]; rate 0.0156 kg/ha): 0.0; Preemergence herbicidal rating GLXMAW ([5]; rate 0.0313 kg/ha): 0.0; Preemergence herbicidal rating GLXMAW ([5]; rate 0.0625 kg/ha): 0.0; Preemergence herbicidal rating GLXMAW ([5]; rate 0.1250 kg/ha): 0.0; Preemergence herbicidal rating GLXMAW ([5]; rate 0.2500 kg/ha): 0.0; Herbicidal rating SAGPY ([6]; 0.0313 kg/ha): 0.0; Herbicidal rating SAGPY ([6]; 0.0625 kg/ha): 0.0; Herbicidal rating SAGPY ([6]; 0.1250 kg/ha): 4.0; Herbicidal rating SAGPY ([6]; 0.2500 kg/ha): 7.0; Preemergence herbicidal rating ZEAMX (ZEAMX (Corn, Field); rate 0.0156 kg/ha): 0.0; Preemergence herbicidal rating ZEAMX (ZEAMX (Corn, Field); rate 0.0313 kg/ha): 0.0; Preemergence herbicidal rating ZEAMX (ZEAMX (Corn, Field); rate 0.0625 kg/ha): 0.0; Preemergence herbicidal rating ZEAMX (ZEAMX (Corn, Field); rate 0.1250 kg/ha): 0.0; Preemergence herbicidal rating ZEAMX (ZEAMX (Corn, Field); rate 0.2500 kg/ha): 2.0; Postemergence herbicidal rating CASOB (CASOB (Sicklepod); Rate 0.0156 kg/ha): 0.0; Postemergence herbicidal rating CASOB (CASOB (Sicklepod); Rate 0.0313 kg/ha): 2.0; Postemergence herbicidal rating CASOB (CASOB (Sicklepod); Rate 0.0625 kg/ha): 2.0
